According to US10888547B2, “Amorphous and a crystalline form of genz 112638 hemitartrate as inhibitor of glucosylceramide synthase” (Genzyme Corporation, priority 2009, dated 2021):
Where two headings read alike, the source gives them in different places.

Experiments:
[1] = tested on: GM1 in K562 cells; experiment: Flow cytometry of cell surface GM1 in intact cells; assay type: cell-based; settings: for IC50: Homo sapiens
From the text: (§1) Since […] the first and rate-limiting step in the biosynthesis of glycosphingolipids, a flow cytometry assay that measured cell surface levels of GM 1 and GM3 was used to indirectly assess the activity of the inhibitor in intact cells.

[2] = tested on: GM3 in B16/F10 cells; experiment: Flow cytometry of cell surface GM3 in intact cells; assay type: cell-based
From the text: as §1

[3] = tested on: Fabry-Rag mice; experiment: Combination ERT/SRT therapy of Fabry-Rag mice; assay type: in vivo, mouse; settings: ERT 1 mg/kg α-galactosidase A i.v., SRT 300 mg/kg daily in diet
Protocol: For the combination therapy studies, Fabry-Rag mice were put on study at 3 months old (treatment model). Mice in group A received intravenous injections of recombinant human alpha-galactosidase A (Genzyme Corp.) at a dose of 1 mg/kg every 2 months (i.e. 3, 5, 7 and 9 months old). Group B received the same intravenous enzyme doses plus it received Formula (I) Hemitartrate (Genzyme Corp., Cambridge, Mass.) as a component of the pellet food diet. The drug was formulated at 0.15% (w/w) in standard 5053 mouse chow (TestDiet, Richmond, Ind.) and provided ad libitum. […] Group C received enzyme injections every 4 months (i.e. 3 and 7 months old) and was on the same drug-in-food diet as group B. Group D received only the drug-in-food diet (same as groups B and C). Group E was untreated Fabry-Rag mice and group F were wild-type controls.
Quantitation of GL-3 was by Tandem Mass Spectrometry essentially as for GL-1.
Hot plate Assay was performed as described previously (Ziegler, R J et al. Molec. Ther. 15(3), 492-500 (2007).
Beginning at three-months of age, the mice were subjected to a schedule of behavioral tests (i.e. hot-plate assay) and biochemical tests (i.e., GL-3 level analysis in tissues/blood/urine), as shown in FIG. 10.

[4] = tested on: Gaucher mice (D409V/null); experiment: Separate and sequential enzyme and substrate reduction therapy in Gaucher mice; assay type: in vivo, mouse
From the text: Procedures involving animals were reviewed and approved by the Institutional Animal Care and Use Committee (IACUC) at Genzyme Corporation following the guidelines issued by the Association for Assessment and Accreditation of Laboratory Animal Care (AAALAC). […] The study had 6 groups of mice with group A being sacrificed after 2 weeks to provide baseline levels of tissue glucosylceramide. Groups B, C, and D all received recombinant human glucocerebrosidase (Genzyme Corp., Cambridge, Mass.) (10 mg/kg) intravenously via a tail-vein (100 μL) every 2 days for a total of 8 injections. Group B was sacrificed at the end of this regimen (at the same time as group A) to provide enzyme-reduced levels of tissue glucosylceramide. Groups D and E were both fed Formula (I) Hemitartrate (Genzyme Corp., Cambridge, Mass.) as a component of the pellet food diet. The drug was formulated at 0.075% (w/w) in standard 5053 mouse chow (TestDiet, Richmond, Ind.) and provided ad libitum. […] Group F received no treatment and was sacrificed along with groups C, D and E 12 weeks after the start of the study. Food consumption and mouse weights were monitored three times per week to determine drug intake and the potential impact of the drug on overall health. Animals were killed by carbon dioxide inhalation and their tissues harvested immediately. Half of each tissue was snap frozen on dry ice and stored at −80° C. until ready for further processing. The other half was processed for histological analysis.
Glucosylceramide levels were quantified by mass spectrometry as described previously (see K. McEachern, et al., J. Gene. Med. 8 (2006) 719-729; T. Doering, J. Biol. Chem. 274 (1999) 11038-11045, the entire teachings of both are incorporated herein by reference). A known mass of tissue was homogenized in 2:1 (v/v) chloroform:methanol and incubated at 37° C. for 15 min. Samples were centrifuged and the supernatants were extracted with 0.2 volumes of water overnight at 4° C. The samples were centrifuged, the aqueous phase was discarded, and the organic phase was dried down to a film under nitrogen. For electrospray ionization mass spectrometry (ESI/MS) analysis, tissue samples were reconstituted to the equivalent of […] original tissue weight in 1 ml chloroform:methanol (2:1, v/v) and vortexed for 5 min. Aliquots (40 μL) of each sample were delivered to Waters total recovery vials and 50 μL of a 10 μg/mL d3-C16-GL-1 internal standard (Matreya, Inc., Pleasant Gap, Pa.) was added. Samples were dried under nitrogen and reconstituted with 200 μL of 1:4 (v/v) DMSO:methanol. ESI/MS analysis of glucosylceramides of different carbon chain lengths was performed on a Waters alliance HPLC (Separation Module 2695) coupled to a Micromass Quattro Micro system equipped with an electrospray ion source. Lipid extract samples (20 μL) were injected onto a C8 column ([…] i.d; Phenomenex, Torrance, Calif.) at 45° C. and eluted with a gradient of 50 to 100% acetonitrile (2 mM ammonium acetate, 0.1% formic acid) at 0.5 mL/min. The first 0.5 min. was held at 50% organic and then quickly switched to 100% for the final 3.5 min. The source temperature was held constant at 150° C. and nitrogen was used as the desolvation gas at a flow rate of 670 L/h. The capillary voltage was maintained at 3.80 KV with a cone voltage of 23 V, while the dwell time for each ion species was 100 ms. Spectra were acquired by the MRM mode to monitor eight dominant isoforms (C16:0, C18:0, C20:0, C22:1, C22:0, C22:1-OH, C24:1, and C24:0). Quantitation of glucosylceramide was based on the sum of these eight isoforms relative to the internal standard, with a calibration curve ranging from 0.1 to 10 μg/mL.
For histological analysis, tissues were fixed in zinc formalin (Electron Microscopy Sciences, Hatfield, Pa.) at room temperature for 24 h, then stored in PBS at 4° C. until ready for further processing. […]

[5] = Drug interaction study with ketoconazole (CYP3A4 and p-glycoprotein inhibitor) in healthy subjects; assay type: in vivo, human; settings: 100 mg twice daily with ketoconazole 400 mg once daily
[6] = group D: 2 weeks enzyme, then 150 mg/kg/day in food for 10 weeks
[7] = group E: 150 mg/kg/day in food alone for 12 weeks

CCCCCCCC(=O)N[C@H](CN1CCCC1)[C@H](O)c1ccc2c(c1)OCCO2 [Formula (I) Hemitartrate]
IC50 ([1]; K562 cells, 72 h incubation, printed range 14-34 nM, read-out: mean IC50 for inhibiting the cell surface presentation of GM1): 0.024 µM | IC50 ([1]; Table 8, GM1 in K562 cells, read-out: Substrate inhibition potency (in vitro IC50)): ~0.024 µM | cellular toxicity ([1]; K562 cells, up to the highest dose (0.6-1000 nM), 72 h): No overt cellular toxicity | IC50 ([2]; Mus musculus, 72 h incubation, printed range 12-48 nM, read-out: mean IC50 for inhibiting the cell surface presentation of GM3): 0.029 µM | cellular toxicity ([2]; up to the highest dose (0.6-1000 nM), 72 h): No overt cellular toxicity | onset of heat-insensitivity [3]: delays onset | urine GL-3 levels [3]: reduces | blood GL-3 levels ([3]; from 3 months of age): does not | liver histopathology, CD68-positive Gaucher cells ([4]; 2 weeks enzyme, then substrate reduction therapy for 10 weeks): increase in Gaucher cells was negated | weight gain versus regular chow ([4]; chow containing 150 mg/kg/day): no discernible differences in weight gain | liver histopathology, CD68-positive Gaucher cells ([4]; drug alone for 12 weeks): reduced accumulation of the substrate | lung GL1 levels versus untreated controls (F) ([4]; group D: 2 weeks enzyme, then 150 mg/kg/day in chow for 10 weeks): significantly lower | liver GL1 levels versus untreated controls (F) [4, 6]: significantly lower | splenic GL1 levels versus untreated control (F) [4, 6]: significantly lower | liver GL-1 levels versus untreated, age-matched controls (F) [4, 7]: the difference was not significant | pulmonary GL1 levels versus untreated controls (F) [4, 7]: effective in lowering pulmonary GL1 levels | splenic GL1 levels versus untreated controls (F) [4, 7]: the difference was not significant | increase in exposure of the free base in plasma at steady state with ketoconazole [5]: 4 fold
